The values that follow come from patent US10335400B2, “Treatment of tauopathies with mGluR5 antagonists” (priority 2014, dated 2019).

For series [1], the system named is mixed primary neuronal culture. Briefly: LDH release assay in mixed primary neuronal culture. The note with it: 1 mM BMAA, 24 h. It counts as cell-based, mouse. The method, then:
Mouse hippocampal neuronal cultures were prepared from d 18 embryos as previously described (1). Briefly, C57BL/6 pregnant female mice from Charles River Laboratories were killed by cervical dislocation. All studies were performed in accordance with the recommendations in the Guide for the Care and Use of Laboratory Animals of the National Institutes of Health (2). The protocol was approved by Institutional Animal Care and Use Committee of the New York Institute for Basic Research in Developmental Disabilities. All surgeries were performed under anesthesia, and all efforts were made to minimize suffering. Embryos were removed and placed in cold Hibernate A (BrainBits, LLC), and all the following steps were performed in ice-cold Hibernate A, under a stereoscopic (dissection) microscope placed in a laminar flow hood. Fetal brains were removed carefully, and forebrains were separated. The hippocampus, including the cortex surrounding the area of the hippocampus, was dissected and cut into small pieces using microsurgical scissors. […]

In the next series the test system is PP2A. The experiment in a line: PP2A activity (phosphatase ELISA) in rat brain slices. Type of series: cell-based. The settings on record: brain slices incubated with BMAA 1 mM for 2 h in artificial cerebrospinal fluid. The method, then: (§1) Male Wistar rats (Charles River Laboratories), 2-3 months old, were anesthetized by i.p. injection with 50 mg/kg Nembutal. The animals were decapitated when deeply anesthetized. The brains were removed immediately and cooled in ice-cold (4° C.) oxygenated artificial cerebrospinal fluid (aCSF) consisting of 126 mM NaCl, 3.5 mM KCl, 1.2 mM NaH2PO4, 1.3 mM MgCl2, 2 mM CaCl2, 11 mM D(+) glucose, and 25 mM NaHCO3 (pH 7.4) for 7-8 min. Each brain then was divided sagittally, and 400-μm-thick coronal slices were made with a Camden Vibraslicer (WP, Inc.). The slices were transferred into a chamber containing the oxygenated aCSF and were incubated at 33° C. for 2 h in the presence or absence of 1 mM, β-N ? methylamino-L-alanine (BMAA) dissolved in 10 mM NaHCO3 (Sigma). The oxygenation of the aCSF was carried out by bubbling the solution with a mixture of 95% O2 and 5% CO2 during the entire procedure. At the end of incubation, the brain slices were homogenized with homogenizing buffer [50 mM Tris·HCl (pH 7.4), 8.5% (wt/vol) sucrose, 2 mM EDTA, 2 mM EGTA, 10 mM (3-mercaptoethanol, 5 mM benzamidine, 0.5 mM 4-(2-Aminoethyl) benzenesulfonyl fluoride hydrochloride (AEBSF), 4 μg/mL pepstatin A, and 10 μg/mL each of aprotinin and leupepin] at a ratio of 9.0 mL buffer/1.0 g tissue slices. The homogenates were divided into two parts. One part was centrifuged at 16,000×g for 10 min, and the resulting supernatant was used to assay protein phosphatase 2A (PP2A) activity. Into the other half, an equal volume of phosphatase-inhibitor mixture (20 mM 3-glycerophosphate, 2 mM Na3VO4, and 100 mM NaF) was added immediately, and the samples were used for Western blots.

The test system of another series is PP2Ac. Briefly: PP2A regulatory factors (pTyr307-PP2Ac, demethylated Leu309, I1PP2A, I2PP2A) by Western blots in rat brain slices. Type of series: cell-based. The settings on record: BMAA-treated rat brain slices (1 mM, 2 h). How it is done:
Male Wistar rats (Charles River Laboratories), 2-3 months old, were anesthetized by i.p. injection with 50 mg/kg Nembutal. The animals were decapitated when deeply anesthetized. The brains were removed immediately and cooled in ice-cold (4° C.) oxygenated artificial cerebrospinal fluid (aCSF) consisting of 126 mM NaCl, 3.5 mM KCl, 1.2 mM NaH2PO4, 1.3 mM MgCl2, 2 mM CaCl2, 11 mM D(+) glucose, and 25 mM NaHCO3 (pH 7.4) for 7-8 min. Each brain then was divided sagittally, and 400-μm-thick coronal slices were made with a Camden Vibraslicer (WP, Inc.). The slices were transferred into a chamber containing the oxygenated aCSF and were incubated at 33° C. for 2 h in the presence or absence of 1 mM, β-N ? methylamino-L-alanine (BMAA) dissolved in 10 mM NaHCO3 (Sigma). The oxygenation of the aCSF was carried out by bubbling the solution with a mixture of 95% O2 and 5% CO2 during the entire procedure. […]
Protein was fractionated by 10% SDS/PAGE, transferred to PVDF membrane, and then blocked with 5% skim milk for 1 h at room temperature. […] The protein bands were detected with the enhanced chemiluminescence reagents (Thermo Scientific). Band intensity was measured by Multi-Gauge V3 software (Fuji Photo Film).

Series [2] has as its system PP2A regulated protein kinases. The experiment in a line: Phosphorylated PP2A regulated protein kinases by Western blots in rat brain slices. It counts as cell-based. The settings on record: BMAA-treated rat brain slices (1 mM, 2 h). The method, then: as §1
Protein was fractionated by 10% SDS/PAGE, transferred to PVDF membrane, and then blocked with 5% skim milk for 1 h at room temperature. The membrane was probed with anti-IPP2A (5G6, 1:1, 500) (7), anti-I2P2A (10E7, 1:1, 600) (7), anti-tau ˜92e; 1:5,000) (8), anti-tau (R134d; 1:5 000) (9), anti-tau pSer^262/^356 (12E8; 1:500) (10, anti-tau pSer^199, anti-tau pThr^205, anti-tau pThr^212, and pSer^396 (1:1,000) (Biosource), anti-GAPDH (1:2,000) (Santa Cruz Biotechnology), anti-PP2Ac (1:10 000) (BD Transduction Lab), anti pY^307-PP2A and anti-DML^309-PP2A (1:1,000) (Millipore), anti-GSK-3(α/β), anti-pS^9-GSK-3 β, anti-ERK1/2, anti-pT^202/Y^204-ERK1/2, anti-MEK1/2, anti-p9^17/221-MEK1/2, anti-CAMKII, anti-pT^286-CAMKII, anti-p70 S6 kinase, anti-pT^389-p70 S6 kinase, anti-SAPK/JNK, and anti-pT^183/Y^185-SAPK/JNK (1:1,000) (Cell Signaling Technology). The membrane then was incubated with HRP-conjugated secondary antibody (Jackson ImmunoResearch). The protein bands were detected with the enhanced chemiluminescence reagents (Thermo Scientific). Band intensity was measured by Multi-Gauge V3 software (Fuji Photo Film).

In series [3] the target is bovine purified PP2A holoenzyme (Bos taurus, UniProt P67774). Briefly: In vitro PP2A activity assay with purified PP2A holoenzyme. Type of series: biochemical. The settings on record: purified PP2A holoenzyme in the presence or absence of BMAA. An excerpt:
No effect of BMAA on PP2A activity was found.

The test system of a further series is motor neurons. The settings on record: cited from earlier work.

Bounds are passed on as bounds.

Chain of bovine purified PP2A holoenzyme (Q32PI5 whole entry): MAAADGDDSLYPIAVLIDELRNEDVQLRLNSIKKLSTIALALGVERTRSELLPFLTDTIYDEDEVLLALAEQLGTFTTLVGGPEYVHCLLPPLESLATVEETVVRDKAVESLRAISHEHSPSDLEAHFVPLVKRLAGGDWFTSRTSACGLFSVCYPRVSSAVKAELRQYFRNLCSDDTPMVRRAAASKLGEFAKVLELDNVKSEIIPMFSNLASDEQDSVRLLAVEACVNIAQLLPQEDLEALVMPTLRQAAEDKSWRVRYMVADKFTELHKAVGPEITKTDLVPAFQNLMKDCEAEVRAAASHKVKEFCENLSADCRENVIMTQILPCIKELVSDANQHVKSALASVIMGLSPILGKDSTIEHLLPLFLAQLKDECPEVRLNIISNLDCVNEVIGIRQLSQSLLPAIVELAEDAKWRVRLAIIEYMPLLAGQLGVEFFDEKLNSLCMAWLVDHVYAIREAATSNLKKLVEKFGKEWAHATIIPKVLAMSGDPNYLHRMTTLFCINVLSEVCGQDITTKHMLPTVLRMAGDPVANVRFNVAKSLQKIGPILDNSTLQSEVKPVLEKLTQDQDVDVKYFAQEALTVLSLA
Chain of bovine purified PP2A holoenzyme (P67774 whole entry): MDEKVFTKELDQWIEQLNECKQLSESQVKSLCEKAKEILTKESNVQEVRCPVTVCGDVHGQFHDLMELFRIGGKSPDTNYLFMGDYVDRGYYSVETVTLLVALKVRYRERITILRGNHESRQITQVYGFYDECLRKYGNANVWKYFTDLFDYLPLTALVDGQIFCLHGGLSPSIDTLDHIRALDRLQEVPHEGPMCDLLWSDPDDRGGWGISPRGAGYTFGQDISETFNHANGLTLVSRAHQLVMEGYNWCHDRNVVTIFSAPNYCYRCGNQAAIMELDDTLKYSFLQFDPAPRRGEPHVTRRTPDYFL

For `CNC[C@H](N)C(=O)O` [BMAA, β-N-methylamino-L-alanine], the “cell death (LDH release)” value in series [1] is listed as “caused cell death”. Further, the PP2A activity result with PP2A was “significant inhibition”. Further, the “increase in phosphorylation of PP2Ac at Tyr307” value with PP2Ac came out at 3.7 fold. Also, in series [2], the “level of phosphorylated GSK-3β” value was “no significant changes”, the “level of phosphorylated JNK” value is listed as “no significant changes”, the “level of phosphorylated p70 S6 kinase” value is “no significant changes” and the “level of phosphorylated/activated CaMKII” value is “increased noticeably”. Besides, in series [2], the “level of phosphorylated/activated ERK1/2” value is recorded as “increased noticeably” and the “level of phosphorylated/activated MEK1/2” value is recorded as “increased noticeably”. Moreover, the “direct effect on PP2A activity” value in series [3] is “No effect”. Also, the “BMAA concentration causing selective death of motor neurons” value in the series on motor neurons is no less than 30 µM.
